Values quoted from earlier work, collected in PMC9441699 (Frontiers in Cellular and Infection Microbiology, 2022).
Like-named read-outs stand apart in the source and are kept apart here.

Columns and labels:
[1] = system: SARS-CoV-3CLpro
[2] = system: SARS-CoV-PLpro
[3] = system: HcoV-NL63 inLLC-MK2 cells; design: method as in Weng et al., 2019; details: 0, 10, 50,100 µM/36h; ref Weng et al., 2019; read-out: Inhibition of viral cytopathicity IC50
[4] = system: SARS-CoV helicase
[5] = system: interaction of S protein with ACE2; design: method as in Ho et al., 2007; dose or concentration left out as unconfirmed; details: ref Ho et al., 2007
[6] = system: Vero cells; design: method as in Ho et al., 2007; details: 0, 10, 50, 100, 200 and 400 µ/mL; ref Ho et al., 2007
[7] = system: SARS-CoV; details: read-out: EC50 SARS-CoV viral replication
[8] = target: angiotensin converting enzyme from rabbit lung; design: method as in Yu et al., 2012; details: 0.01-10 µM; ref Yu et al., 2012
[9] = system: HcoV-OC43; details: 2019
[10] = system: MERS-CoV; details: 2019
[11] = system: HcoV-NL63
[12] = system: SARS-CoV; details: ref Li et al., 2005
[13] = system: RdRp Dengue virus; design: method as in Coulerie et al., 2013; details: in vitro; ref Coulerie et al., 2013
[14] = tanshinones from Salvia miltiorrhiza, read-out: IC50 against PLpro
[15] = 1, 2.5, 20 µM/16h, ref Jo et al., 2020, read-out: IC50

For `Cc1cccc2c3c(ccc12)C1=C(C(=O)C3=O)[C@@H](C)CO1` [Ligand L09, Dihydrotanshinone l,], the IC50 ([1]; 0-200 µM/60min, ref Park et al., 2012b, read-out: IC50) is listed as 14.4 µM and the IC50 [2, 14] is listed as 4.9 µM.

In the case of `Cc1coc2c1C(=O)C(=O)c1c-2ccc2c1CCCC2(C)C` [tanshinone IIA], the IC50 [2, 14] is listed as 1.6 µM.

For `O=C(O)c1cc(O)c(O)c(O)c1` [Ligand L12, Gallic acid], the IC50 [3] is listed as 71.5 µM.

For `O=c1cc(-c2ccc(O)cc2)oc2cc(O)c(O)c(O)c12` [Ligand L13, Scutellarein], the “inhibitory effect against SARS-CoV helicase” value [4] is given as “moderate inhibitory impacts” and the IC50 ([4]; 0.01-10 µM, In vitro, ref Yu et al., 2012) is given as 0.86 µM.

In the case of `O=c1cc(-c2ccccc2)oc2cc(O)cc(O)c12` [chrysin], the “effect on the interaction of S protein with ACE2” value [5] is listed as “weak inhibitory effect”.

In the case of `Oc1cc(O)cc(Oc2c(O)cc(O)c3c2Oc2c(O)cc(Oc4c(O)cc(Oc5c(O)cc(O)c6c5Oc5c(O)cc(O)cc5O6)cc4O)cc2O3)c1` [Ligand L05, Dieckol], the IC50 ([1]; 0-200 µM, ref Park et al., 2013, read-out: IC50) is listed as 2.7 µM.

For `O=c1cc(-c2ccc(O)c(-c3c(O)cc(O)c4c(=O)cc(-c5ccc(O)cc5)oc34)c2)oc2cc(O)cc(O)c12` [Ligand L14, Amentoflavone], the IC50 ([1]; 0-300 µM, ref Ryu et al., 2010a, read-out: IC50) is given as 8.3 µM.

In the case of `Cc1cc(O)c2c(c1)C(=O)c1cc(O)cc(O)c1C2=O` [Ligand L07, Emodin], the IC50 [6] is listed as 200 µM.

In the case of `O=c1c(O)c(-c2ccc(O)cc2)oc2c(O)c(O)cc(O)c12` [Ligand L16, Herbacetin], the IC50 [1, 15] is given as 33.2 µM.

For `COc1cc([C@H]2Oc3cc4c(c(O)c3C(=O)[C@@H]2O)CCC(C)(CCCC(C)(C)O)O4)ccc1O` (stereo partly shown) [Ligand L06, Tomentin E], the IC50 ([2]; 0, 6.25, 12.5, 25 µM, ref Cho et al., 2013, read-out: IC50) is listed as 5 µM.

For `CC(C)=CCc1cc2c(cc1O)oc(=O)c1c3ccc(O)cc3oc21` [Ligand L04, Psoralidin], the IC50 ([2]; 0-100 µM, ref Kim et al., 2014, read-out: IC50) is given as 4.2 µM.

For `COC(=O)[C@H]1[C@H]2C[C@@H]3c4[nH]c5cc(OC)ccc5c4CCN3C[C@H]2C[C@@H](OC(=O)c2cc(OC)c(OC)c(OC)c2)[C@@H]1OC` [Reserpine], the EC50 [7] is listed as 3.4 µM.

For `O=c1c(O)c(-c2cc(O)c(O)c(O)c2)oc2cc(O)cc(O)c12` [Ligand L03, Myricetin], the “inhibitory effect against SARS-CoV helicase” value [4] is given as “moderate inhibitory impacts” and the IC50 [8] is given as 2.71 µM.

In the case of `C=C(C)C(Cc1c(OC)ccc(C(=O)/C=C/c2ccc(O)cc2)c1O)OO` (stereo not shown) [Ligand L02, Xanthoangelol E], the IC50 ([1]; 0, 12.5, 25, 50 µM, ref Park et al., 2016, read-out: Inhibition of SARS-CoV-3CLpro activity IC50) is given as 11.4 µM and the IC50 ([2]; 0, 12.5, 25, 50 µM, ref Park et al., 2016, read-out: Inhibition of SARS-CoV-PLpro activity IC50) is given as 1.2 µM.

In the case of `CC[C@H]1CN2CCc3cc(OC)c(OC)cc3[C@@H]2C[C@@H]1C[C@H]1NCCc2cc(OC)c(OC)cc21` [Emetine, reference compound], the EC50 ([9]; ref Weber and Opatz) is listed as 0.3 µM, the EC50 ([10]; ref Weber and Opatz) is listed as 0.34 µM and the EC50 ([11]; ref Weber and Opatz, 2019, read-out: EC50 HcoV-NL63) is listed as 1.43 µM.

For `C[C@@H]1O[C@@H](O[C@H]2[C@H](Oc3cc(O)c4c(=O)cc(-c5ccc(O)cc5)oc4c3)O[C@H](CO)[C@@H](O)[C@@H]2O)[C@H](O)[C@H](O)[C@H]1O` [Ligand L18, Rhoifolin], the IC50 [1, 15] is given as 27.4 µM.

For `O=C(/C=C/c1ccc(O)c(O)c1)O[C@@H]1C[C@](O)(C(=O)O)C[C@@H](O)[C@H]1O` [Ligand L11, Chlorogenic acid], the IC50 [3] is listed as 43.5 µM.

In the case of curcumin, the IC50 ([2]; diarylheptanoids, ref Park et al., 2012a, read-out: IC50 PLpro) is listed as 5.7 µM.

For `O=C(/C=C/CCc1ccc(O)c(O)c1)CCc1ccc(O)c(O)c1` [Ligand L01, Hirsutenone], the IC50 ([2]; 0-200 µM/60min, ref Park et al., 2012a, read-out: IC50) is listed as 4.1 µM.

In the case of `O=C(O)/C=C/c1ccc(O)c(O)c1` [Ligand L10, Caffeic acid], the IC50 [3] is listed as 3.54 µM.

For `CC[C@H](CC[C@@H](C)[C@H]1CC[C@H]2[C@@H]3CC=C4C[C@@H](O)CC[C@]4(C)[C@H]3CC[C@]12C)C(C)C` [Sitosternol], the EC50 ([11]; ref Lin et al., 2005, read-out: EC50 against human coronavirus (HCoV-NL63)) is listed as 1210 µM.

For `C[C@H]1COC2=C1C(=O)C(=O)c1c2ccc2c1CCCC2(C)C` [Ligand L08, Cryptotanshinone], the IC50 ([2]; 0-200 µM/30min, ref Park et al., 2012b, read-out: IC50) is given as 0.8 µM.

In the case of `COc1cc(/C=C/C(=O)NC(O)C(=O)c2ccc(O)cc2)ccc1O` (stereo not shown) [Ligand L15, Terrestrimine], the IC50 ([2]; 1,10,100,1000 µM, ref Song et al., 2014, read-out: IC50) is given as 15.8 µM.

In the case of `COc1ccc(C(=O)/C=C/c2ccc(O)cc2)c(O)c1C/C=C(\C)CCC=C(C)C` [xanthoangelol F], the IC50 ([2]; noncompetitive inhibition, ref Park et al., 2016, read-out: IC50 PLpro) is listed as 5.6 µM.

For `COc1ccc(-c2cc(=O)c3c(O)c(OC)c(O[C@@H]4O[C@H](CO[C@@H]5O[C@@H](C)[C@H](O)[C@@H](O)[C@H]5O)[C@@H](O)[C@H](O)[C@H]4O)cc3o2)cc1` [Ligand L17, Pectolinarin], the IC50 [1, 15] is given as 37.8 µM.

In the case of `O[C@H]1[C@H]2c3cc4c(cc3CN3CCC(=C[C@@H]1O)[C@H]23)OCO4` [lycorine], the EC50 ([12]; MTS test, read-out: EC50 against SARS-CoV) is listed as 0.0157 ± 0.0012 µM, the IC50 ([12]; Prasansuklab et al., 2020, read-out: IC50 anti-SARS-CoV) is listed as 0.0157 µM and the EC50 ([9]; in vitro, ref Shen et al.) is listed as 0.15 µM. For the same molecule, the EC50 ([10]; in vitro, ref Shen et al.) was 1.63 µM and the EC50 ([11]; in vitro, ref Shen et al., 2019, read-out: EC50 HcoV-NL63) was 0.47 µM.

For `COc1cc(O)c2c(=O)cc(-c3ccc(O)cc3)oc2c1-c1cc(-c2cc(=O)c3c(O)cc(O)cc3o2)ccc1O` [sotetsuflavone], the IC50 [13] is given as 0.16 µM.
